From publication PMC11397727, “Fast Screening of Tyrosinase Inhibitors in Coreopsis tinctoria Nutt. by Ligand Fishing Based on Paper-Immobilized Tyrosinase” (Molecules, 2024)

Target: T1, Mushroom Tyrosinase (TYR) (Agaricus bisporus, UniProt C7FF04)
T1 construct: gene PPO3
Experiment: colorimetric L-Dopa oxidation assay, single-concentration inhibition at […]; also retrieved by ligand fishing on paper-immobilized tyrosinase
Assay type: biochemical

T1 sequence (C7FF04 2-392): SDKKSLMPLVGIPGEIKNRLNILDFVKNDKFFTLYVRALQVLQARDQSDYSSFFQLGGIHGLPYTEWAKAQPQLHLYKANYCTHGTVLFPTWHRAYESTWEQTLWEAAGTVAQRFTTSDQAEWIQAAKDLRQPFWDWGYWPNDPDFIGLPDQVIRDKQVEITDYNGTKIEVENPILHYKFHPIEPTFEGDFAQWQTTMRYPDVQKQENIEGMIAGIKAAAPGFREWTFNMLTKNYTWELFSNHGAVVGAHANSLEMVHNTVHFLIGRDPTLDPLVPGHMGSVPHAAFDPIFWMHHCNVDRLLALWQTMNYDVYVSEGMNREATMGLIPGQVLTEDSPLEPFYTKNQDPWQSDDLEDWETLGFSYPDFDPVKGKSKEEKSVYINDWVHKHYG

inhibition at 25 µM: 29.4%
Compound: O=C(/C=C/c1ccc(O)c(O)c1)c1ccc(O[C@@H]2O[C@H](CO)[C@@H](O)[C@H](O)[C@H]2O)c(O)c1O [compound 2, marein]
